According to PubChem BioAssay (NCI):
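Briefly, cells in 96-well plates were exposed to five compound concentrations for 48 h, and endpoints were estimated by linear interpolation. The concentration for 50% growth inhibition is given as GI50. At the TGI there is no net growth.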

Assays:
Assay in all cases: NCI tumour cell line growth inhibition, 48 h
DU-145 prostate = system: DU-145 prostate
RXF 393 renal = system: RXF 393 renal
UO-31 renal = system: UO-31 renal
NCI-H460 lung = system: NCI-H460 lung
IGROV1 ovarian = system: IGROV1 ovarian
SN12C renal = system: SN12C renal
HT29 colon = system: HT29 colon
SK-MEL-28 melanoma = system: SK-MEL-28 melanoma
OVCAR-3 ovarian = system: OVCAR-3 ovarian
HCT-15 colon = system: HCT-15 colon
SK-MEL-2 melanoma = system: SK-MEL-2 melanoma
BT-549 breast = system: BT-549 breast
MOLT-4 leukemia = system: MOLT-4 leukemia
UACC-62 melanoma = system: UACC-62 melanoma
HS 578T breast = system: HS 578T breast
ACHN renal = system: ACHN renal
U251 CNS = system: U251 CNS
M14 melanoma = system: M14 melanoma
SNB-19 CNS = system: SNB-19 CNS
NCI-H226 lung = system: NCI-H226 lung
PC-3 prostate = system: PC-3 prostate
K-562 leukemia = system: K-562 leukemia
MDA-MB-435 = system: MDA-MB-435
HOP-92 NSCLC = system: HOP-92 NSCLC
KM12 colon = system: KM12 colon
A498 renal = system: A498 renal
TK-10 renal = system: TK-10 renal
786-0 renal = system: 786-0 renal
SF-268 CNS = system: SF-268 CNS
SK-MEL-5 melanoma = system: SK-MEL-5 melanoma
OVCAR-4 ovarian = system: OVCAR-4 ovarian
CAKI-1 renal = system: CAKI-1 renal
MDA-MB-231 breast = system: MDA-MB-231 breast
NCI/ADR-RES ovarian = system: NCI/ADR-RES ovarian
COLO 205 colon = system: COLO 205 colon
SF-295 CNS = system: SF-295 CNS
NCI-H522 lung = system: NCI-H522 lung
SNB-75 CNS = system: SNB-75 CNS
OVCAR-5 ovarian = system: OVCAR-5 ovarian
NCI-H23 lung = system: NCI-H23 lung
SW-620 colon = system: SW-620 colon
MCF7 breast = system: MCF7 breast
SK-OV-3 ovarian = system: SK-OV-3 ovarian
T-47D breast = system: T-47D breast
MALME-3M melanoma = system: MALME-3M melanoma
HL-60(TB) leukemia = system: HL-60(TB) leukemia
LOX IMVI melanoma = system: LOX IMVI melanoma

With `CCOC(=O)c1cc(NC(=O)c2cc(NC(=O)c3cc(NC(=O)c4c(-c5ccccc5)noc4C)cn3C)cn2C)cn1C` the GI50 (DU-145 prostate) was 16.9 µM, the TGI (DU-145 prostate) was > 100 µM and the GI50 (RXF 393 renal) was > 100 µM. The TGI (RXF 393 renal) was > 100 µM, the GI50 (UO-31 renal) was > 100 µM and the TGI (UO-31 renal) was > 100 µM. The GI50 (NCI-H460 lung) was > 100 µM, the TGI (NCI-H460 lung) was > 100 µM and the GI50 (IGROV1 ovarian) was > 100 µM. The TGI (IGROV1 ovarian) was > 100 µM, the GI50 (SN12C renal) was 73.4 µM and the TGI (SN12C renal) was > 100 µM. For the same compound, the GI50 (HT29 colon) was > 100 µM, the TGI (HT29 colon) was > 100 µM and the GI50 (SK-MEL-28 melanoma) was > 100 µM. For the same compound, the TGI (SK-MEL-28 melanoma) was > 100 µM, the GI50 (OVCAR-3 ovarian) was 47.9 µM and the TGI (OVCAR-3 ovarian) was > 100 µM. The GI50 (HCT-15 colon) was > 100 µM, the TGI (HCT-15 colon) was > 100 µM and the GI50 (SK-MEL-2 melanoma) was > 100 µM. For the same compound, the TGI (SK-MEL-2 melanoma) was > 100 µM, the GI50 (BT-549 breast) was 4.37 µM and the TGI (BT-549 breast) was 59.5 µM. The GI50 (MOLT-4 leukemia) was 8.97 µM, the TGI (MOLT-4 leukemia) was > 100 µM and the GI50 (UACC-62 melanoma) was 44.4 µM. The TGI (UACC-62 melanoma) was > 100 µM, the GI50 (HS 578T breast) was > 100 µM and the TGI (HS 578T breast) was > 100 µM. The GI50 (ACHN renal) was > 100 µM, the TGI (ACHN renal) was > 100 µM and the GI50 (U251 CNS) was > 100 µM. For the same compound, the TGI (U251 CNS) was > 100 µM, the GI50 (M14 melanoma) was 47.1 µM and the TGI (M14 melanoma) was > 100 µM. The GI50 (SNB-19 CNS) was > 100 µM, the TGI (SNB-19 CNS) was > 100 µM and the GI50 (NCI-H226 lung) was 60.3 µM. The TGI (NCI-H226 lung) was > 100 µM, the GI50 (PC-3 prostate) was 19.2 µM and the TGI (PC-3 prostate) was > 100 µM. For the same compound, the GI50 (K-562 leukemia) was 9.3 µM, the TGI (K-562 leukemia) was > 100 µM and the GI50 (MDA-MB-435) was > 100 µM. For the same compound, the TGI (MDA-MB-435) was > 100 µM, the GI50 (HOP-92 NSCLC) was 0.241 µM and the TGI (HOP-92 NSCLC) was 4.36 µM. The GI50 (KM12 colon) was > 100 µM, the TGI (KM12 colon) was > 100 µM and the GI50 (A498 renal) was > 100 µM. For the same compound, the TGI (A498 renal) was > 100 µM, the GI50 (TK-10 renal) was > 100 µM and the TGI (TK-10 renal) was > 100 µM. The GI50 (786-0 renal) was > 100 µM, the TGI (786-0 renal) was > 100 µM and the GI50 (SF-268 CNS) was > 100 µM. The TGI (SF-268 CNS) was > 100 µM, the GI50 (SK-MEL-5 melanoma) was > 100 µM and the TGI (SK-MEL-5 melanoma) was > 100 µM. For the same compound, the GI50 (OVCAR-4 ovarian) was > 100 µM, the TGI (OVCAR-4 ovarian) was > 100 µM and the GI50 (CAKI-1 renal) was > 100 µM. The TGI (CAKI-1 renal) was > 100 µM, the GI50 (MDA-MB-231 breast) was 35 µM and the TGI (MDA-MB-231 breast) was > 100 µM. For the same compound, the GI50 (NCI/ADR-RES ovarian) was > 100 µM, the TGI (NCI/ADR-RES ovarian) was > 100 µM and the GI50 (COLO 205 colon) was > 100 µM. For the same compound, the TGI (COLO 205 colon) was > 100 µM, the GI50 (SF-295 CNS) was > 100 µM and the TGI (SF-295 CNS) was > 100 µM. For the same compound, the GI50 (NCI-H522 lung) was > 100 µM, the TGI (NCI-H522 lung) was > 100 µM and the GI50 (SNB-75 CNS) was > 100 µM. For the same compound, the TGI (SNB-75 CNS) was > 100 µM, the GI50 (OVCAR-5 ovarian) was > 100 µM and the TGI (OVCAR-5 ovarian) was > 100 µM. The GI50 (NCI-H23 lung) was > 100 µM, the TGI (NCI-H23 lung) was > 100 µM and the GI50 (SW-620 colon) was > 100 µM. The TGI (SW-620 colon) was > 100 µM, the GI50 (MCF7 breast) was > 100 µM and the TGI (MCF7 breast) was > 100 µM. The GI50 (SK-OV-3 ovarian) was > 100 µM, the TGI (SK-OV-3 ovarian) was > 100 µM and the GI50 (T-47D breast) was > 100 µM. The TGI (T-47D breast) was > 100 µM, the GI50 (MALME-3M melanoma) was 91.2 µM and the TGI (MALME-3M melanoma) was > 100 µM. The GI50 (HL-60(TB) leukemia) was 10.6 µM, the TGI (HL-60(TB) leukemia) was > 100 µM and the GI50 (LOX IMVI melanoma) was > 100 µM. For the same compound, the TGI (LOX IMVI melanoma) was > 100 µM.
